Source: patent US20030162300A1, “Galactomannan-oligosaccharides and methods for the production and use thereof” (priority 1999, published 2003)
Each block holds one compound with its values, some of them ahead of it.

Columns and labels:
[1] = Stability in the stomach: hydrolysis rate at pH 1.0 and 2.0; type: physicochemical; details: 37° C.
Description: For this purpose, 1% galactomanno-oligosaccharide solutions were incubated for 3 h at a pH value of 1.0 (0.1 M HCl) and a pH value of 2.0 (0.01 M HCl) and a temperature of 37° C. After 60, 120, and 180 min, samples were taken from the reaction batch and analyzed by means of HPAEC. The control substances used were saccharose and 1-kestose.

[2] = system: Reh(pre-B) on the colon cell line HT 29; assay: Adhesion assay: Reh (pre-B) on the colon cell line HT 29; type: cell-based; details: 10 μg/batch; for Mittelwert (%) (mean value), specific adhesion: percentage of the 100% value; for Index: relative to without carbohydrate = 1.00
Description: In the adhesion assay, the influence of galactomanno-oligosaccharides according to the present invention on the adhesion of B cell lines (for example, Reh) and normal human B lymphocytes to epithelial cells (colon tumor line HT 29) was measured. In the overlay assay used, the lymphocytes were intracellularly marked with calcein so as to make it possible to carry out the measurement by means of fluorometry.
First, coating with the adherent colon epithelial cell one (HT 29) in microtiter plates (24-hole Costar® plates) took place, with incubation (37° C., overnight) until a confluent bed has formed. This is done as much as possible in a serum-free medium Inoculum: 1×10^4 cells. Before the subsequent assay was carried out, the adherent cells were washed three times with PBS(phosphate-buffered physiological saline solution) and blocked for 1 h at room temperature with PBS+1% bovine serum albumin (BSA).
The untreated B cell lines or isolated B lymphocytes to be tested were marked with fluorescent calcein (1×10^7 cells in 2 mL of RPMI medium+HEPES+10 μL of calcein AM, 30 min, 37° C.; subsequently washed 2× with HBSS (Hanks buffer)+0.25% BSA) and 1×10^6 cells in 0.5 mL of PBS+0.25% […] per hole were incubated for 1 h. The culture plate was placed on a shaker for 10 sec, 0.5 mL of 0.2% glutaraldehyde in PBS+0.2% BSA per hole were added and incubated for 10 min on the shaker. The fluorescence of the plate was measured in a fluorescence measuring device ([…]).
The first measurement corresponds to the 100% value. Subsequently, the plate was washed four times and again measured. This measurement corresponds to the specific adhesion which is expressed as a percentage of the 100% value minus the autofluorescence value (unmarked cells). The control substances used were galactose and glucose.

[3] = system: Streptococcus mutans DSM 20523; assay: Stability in the mouth: incubation with Streptococcus mutans; type: in vitro ADME; details: 1% in 20 mM carbonate buffer pH 7.5, 37° C., 2 h (120 min)
Description: (§1) Streptococcus mutans and Streptococcus sobrinus were cultivated for 24 h in liquid DSM medium 92 under anaerobic conditions at 37° C. At the end of the logarithmic growth phase, the cells were centrifuged off (15 min, 4000×g) and resuspended in 10% of the original 20 mM carbonate buffer, pH 7.5. Subsequently, 9 mL of a solution of the oligosaccharides according to the present invention (1% in 20 mM carbonate buffer, pH 7.5) were inoculated with 1 mL of the bacterial suspension and incubated for 2 h at 37° C.

[4] = system: Streptococcus sobrinus NCTC 10922; assay: Stability in the mouth: incubation with Streptococcus sobrinus; type: in vitro ADME; details: 1% in 20 mM carbonate buffer pH 7.5, 37° C., 2 h (120 min)
Description: as §1

[5] = system: fresh tooth plaque (mixed culture); assay: Stability in the mouth: incubation with fresh tooth plaque; type: in vitro ADME, male volunteers; details: 10 mg plaque in 1 mL 1% solution, pH 7.5, 37° C., 2 h (120 min)
Description: Plaque samples were obtained from three male volunteers who had not brushed their teeth for three days, and in each case, 10 mg of the plaque were suspended in 1 mL of oligosaccharide solution (1% in 20 mM carbonate buffer, pH 7.5). In the course of the two-hour-long incubation time at 37° C., samples were taken and tested for their oligosaccharide content.

[6] = target: T1, saccharase/isomaltase (SI complex) (Sus scrofa, UniProt P56729); assay: Cleavability by alpha-glucosidases of the small intestine, SI complex; type: in vitro ADME, pigs; details: SI enzyme complex 0.7 U, 1% in TRA buffer pH 7.0, 2 h, 37° C.
T1 construct: were isolated from the thin intestine of pigs using the method described by H. Heymann; from tissue; host or cells: pig small intestine (mucous membrane)
From the text: In vivo, the enzyme complexes saccharase/isomaltase and glucoamylase/maltase which are present in the mucous membranes of the small intestine ensure that after their passage into the small intestine, the disaccharides maltose and saccharose and in part also the malto-oligosaccharides are cleaved to form monosaccharides and as such are able to reach the circulatory system via the intestinal wall.
The stability of the galactomanno-oligosaccharides according to the present invention against these enzymes was tested as follows:
The enzyme complexes saccharase/isomaltase (SI complex) and glucoamylase/maltase (GM complex) were isolated from the thin intestine of pigs using the method described by H. Heymann (dissertation, Hannover, 1991).
The cleavability of the galactomanno-oligosaccharides according to the present invention by means of a-glucosidases present in the small intestine was determined as follows:
Triethanolamine (TRA) buffer, 0.1 M, pH 7.0
Galactomanno-oligosaccharides, 1% solution in TRA buffer
Maltose and saccharose as control substances, 1% in TRA buffer […]
At t=0, 0.7 U of the enzyme complex saccharase/isomaltase or glucoamylase/maltase were added to 1.2 mL of the carbohydrate solution which had been heated to a temperature of 37° C., mixed, and incubated at 37° C. […] The monosaccharides formed as well as the test substances used were quantitatively determined by means of HPAEC.

[7] = system: resected colon pieces (distal segment); assay: Mucus secretion of resected colon pieces; type: cell-based; details: pig colon pieces, 5 h, 37°, Hanks buffer; galactomanno-oligosaccharides 1%
Description: After thoroughly cleaning the resected colon of a freshly slaughtered pig, pieces measuring 1 cm^2 were cut from the distal segment of said colon. The pieces thus prepared were incubated, while stirring and fumigating with oxygen, for 5 h at a temperature of 37° in Hanks buffer to which chloramphenicol and ampicillin (50 μg/mL each) had been added. The buffer additionally contained 1% of the galactomanno-oligosaccharides produced according to the present invention and to be tested for their stimulating effect on the mucus secretion. As a control, 10 colon segments were used in each batch to be tested. One of the batches contained hydrocortisone which is normally used in the treatment of inflammatory intestinal diseases.
As a measure for an increase in the mucus secretion, the increase in the total carbohydrate content in the supernatant portion was measured. For this purpose, during the incubation, samples were collected at various times, and 20 μL of resorcin solution (6 mg/mL) and 100 μL of 75% sulfuric acid were added to 10 μL of each sample, and after an incubation time of 60 min at 80° C., the extinction was measured at λ=450 nm.

[8] = system: Staphylococcus aureus, 2 strains; assay: Adhesion of pathogenic microorganisms to human uroepithelial cells, Staphylococcus aureus; type: cell-based; details: human uroepithelial cells preincubated with the carbohydrate
Description: (§2) Human uroepithelial cells obtained by means of centrifugation from first morning urine
(§3) Staphylococcus aureus, 2 strains, and E. coli, 2 strains, each as suspension with 10^9 microorganisms/mL
(§4) The epithelial cells and the suspension of microorganisms were combined and incubated for 30 min at 37° C. Subsequently, the epithelial cells were separated from the nonadherent microorganisms by means of membrane filtration (8 μ). The filters were repeatedly washed and placed into physiological saline solution, and the epithelial cells were suspended in said solution. After centrifuging the suspension in saline solution, the pellet was placed on a microscopic slide and stained according to May-Grünwald and Giemsa. The number of the microorganisms adhering to 50 epithelial cells as counted. The number represented the blank reading. Epithelial cells without the addition of a suspension of microorganisms served as the control.
(§5) In the main test, epithelial cells were first incubated for 1, 2, and 3 h with galactomanno-oligosaccharide solutions of different concentrations. They were subsequently combined with the suspension of microorganisms and treated as described above. The number of microorganisms adhering to 50 epithelial cells represented the measured value.

E. coli, 2 strains = assay: Adhesion of pathogenic microorganisms to human uroepithelial cells, E. coli; type: cell-based; details: human uroepithelial cells preincubated with the carbohydrate
Description: as §2, §3, §4, §5

monocytes = assay: Phagocytosis assay, monocytes; type: cell-based; details: E. coli nonopsonized, 100 μg/batch, whole blood
Description: (§6) The influence of the galactomanno-oligosaccharides according to the present invention on the function of the phagocytes (mono-, granulocytes) can be determined by means of phagocytosis assays. During the phagocytosis stimulation, the phagocytes were first incubated with galactomanno-oligosaccharides (100 μg of glycan/0. 11 mL of whole blood, 37° C., 10 min). A corresponding blank was incubated for 10 min in an ice bath. Subsequently, the actual phagocytosis test was carried out under the following conditions:
(§7) 0.11 mL of the preliminary incubation solution was allowed to stand for 10 min in the ice bath; subsequently, 0.01 mL of nonopsonized E. coli (fluorescein isothiocyanate (FITC) marked, 10^9 per mL, ORPEGEN) or 0.01 mL of nonopsonized Staphylococcus aureus (15×10^6 per mL, FITC marked, MOLECULAR PROBES) were added. The batches were incubated (double determinations) for 10 min at 37° C. The batches were washed twice with 3 mL of washing buffer (ORPEGEN) each and centrifuged at 250×g for 5 min at 4° C. […]
(§8) The measurement was carried out in the flow cytometer (excitation: 488 nm, emission FL-1: 520 nm); monocytes and granulocytes can be distinguished from each other without separation (forward light scatter (FSC) versus ([…]) (sideways light scatter). The results are expressed as a percentage of the phagocytosis-positive cells (see Table VI below). […]

granulocytes = assay: Phagocytosis assay, granulocytes; type: cell-based; details: 100 μg/batch, whole blood
Description: as §6, §7, §8

T1 sequence (P56729 with tags, fused parts or gaps): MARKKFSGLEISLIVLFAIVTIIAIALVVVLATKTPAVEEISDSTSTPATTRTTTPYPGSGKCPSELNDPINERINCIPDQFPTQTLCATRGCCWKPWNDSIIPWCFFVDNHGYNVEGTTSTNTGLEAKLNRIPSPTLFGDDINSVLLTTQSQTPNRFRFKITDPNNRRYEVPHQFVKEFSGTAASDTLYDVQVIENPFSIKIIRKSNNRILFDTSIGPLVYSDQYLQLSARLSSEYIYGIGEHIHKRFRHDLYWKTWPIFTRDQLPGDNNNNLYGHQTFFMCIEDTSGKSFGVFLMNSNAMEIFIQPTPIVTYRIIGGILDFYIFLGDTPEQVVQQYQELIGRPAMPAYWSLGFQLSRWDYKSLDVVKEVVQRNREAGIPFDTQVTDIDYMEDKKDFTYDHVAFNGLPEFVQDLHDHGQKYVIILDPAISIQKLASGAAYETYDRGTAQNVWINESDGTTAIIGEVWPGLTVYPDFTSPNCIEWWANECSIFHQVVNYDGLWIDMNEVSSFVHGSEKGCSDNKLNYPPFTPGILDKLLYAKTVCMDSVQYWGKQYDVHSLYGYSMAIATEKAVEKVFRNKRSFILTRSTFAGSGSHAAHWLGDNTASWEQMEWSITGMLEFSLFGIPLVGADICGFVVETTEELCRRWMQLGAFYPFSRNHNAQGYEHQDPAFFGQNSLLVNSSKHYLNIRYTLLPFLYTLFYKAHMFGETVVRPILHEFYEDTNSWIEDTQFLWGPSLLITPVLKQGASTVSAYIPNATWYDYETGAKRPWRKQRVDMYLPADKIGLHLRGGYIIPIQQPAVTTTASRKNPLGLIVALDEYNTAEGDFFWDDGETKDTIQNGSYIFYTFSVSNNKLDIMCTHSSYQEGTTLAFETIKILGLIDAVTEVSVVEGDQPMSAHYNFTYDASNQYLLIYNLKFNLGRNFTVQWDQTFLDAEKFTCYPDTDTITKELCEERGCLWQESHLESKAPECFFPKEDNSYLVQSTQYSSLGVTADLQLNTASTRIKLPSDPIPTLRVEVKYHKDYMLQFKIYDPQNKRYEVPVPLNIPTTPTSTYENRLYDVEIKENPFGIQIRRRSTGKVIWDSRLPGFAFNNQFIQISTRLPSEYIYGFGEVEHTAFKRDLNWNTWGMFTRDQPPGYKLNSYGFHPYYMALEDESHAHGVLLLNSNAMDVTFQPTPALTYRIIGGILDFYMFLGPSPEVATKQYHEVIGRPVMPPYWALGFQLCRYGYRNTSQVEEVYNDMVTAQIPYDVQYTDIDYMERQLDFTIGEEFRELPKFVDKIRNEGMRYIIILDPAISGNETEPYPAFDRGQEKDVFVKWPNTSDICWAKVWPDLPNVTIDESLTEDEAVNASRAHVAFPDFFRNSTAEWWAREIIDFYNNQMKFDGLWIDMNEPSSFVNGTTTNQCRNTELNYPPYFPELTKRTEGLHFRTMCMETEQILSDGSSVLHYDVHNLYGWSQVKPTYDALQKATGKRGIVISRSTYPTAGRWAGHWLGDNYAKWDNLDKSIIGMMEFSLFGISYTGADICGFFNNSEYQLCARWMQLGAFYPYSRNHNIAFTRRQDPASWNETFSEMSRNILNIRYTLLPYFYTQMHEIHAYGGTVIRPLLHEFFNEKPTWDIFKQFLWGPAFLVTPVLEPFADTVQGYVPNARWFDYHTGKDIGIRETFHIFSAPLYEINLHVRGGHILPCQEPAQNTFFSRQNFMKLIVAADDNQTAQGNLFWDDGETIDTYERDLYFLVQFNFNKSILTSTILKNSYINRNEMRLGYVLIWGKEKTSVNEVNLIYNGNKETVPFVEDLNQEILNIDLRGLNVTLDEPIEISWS

Hydrolysis rate in % ([1]; pH 1 (0.1 M HCl), 60 min): 90% | Hydrolysis rate in % ([1]; pH 1 (0.1 M HCl), 120 min): 100% | Hydrolysis rate in % ([1]; pH 1 (0.1 M HCl), 180 min): 100% | Hydrolysis rate in % ([1]; pH 2 (0.01 M HCl), 60 min): 16% | Hydrolysis rate in % ([1]; pH 2 (0.01 M HCl), 120 min): 30% | Hydrolysis rate in % ([1]; pH 2 (0.01 M HCl), 180 min): 43%
Structure (SMILES): OC[C@H]1O[C@@](CO)(OC[C@@]2(O[C@H]3O[C@H](CO)[C@@H](O)[C@H](O)[C@H]3O)O[C@H](CO)[C@@H](O)[C@@H]2O)[C@@H](O)[C@@H]1O [1-Kestose, 1-kestose]

Structure (SMILES): O=C[C@H](O)[C@@H](O)[C@@H](O)[C@H](O)CO [D-Galactose]
Mittelwert (%) (mean value), specific adhesion [2]: 51% | Index [2]: 1.12

Structure (SMILES): O=C[C@H](O)[C@@H](O)[C@H](O)[C@H](O)CO [D-Glucose]
Mittelwert (%) (mean value), specific adhesion [2]: 47% | Index [2]: 1.11

cleavage/hydrolysis of the carbohydrate [3]: completely hydrolyzed | cleavage/hydrolysis of the carbohydrate [4]: completely hydrolyzed | cleavage/hydrolysis of the carbohydrate [5]: completely hydrolyzed | Hydrolysis rate in % ([1]; pH 1 (0.1 M HCl), 60 min): 24% | Hydrolysis rate in % ([1]; pH 1 (0.1 M HCl), 120 min): 55% | Hydrolysis rate in % ([1]; pH 1 (0.1 M HCl), 180 min): 61% | Hydrolysis rate in % ([1]; pH 2 (0.01 M HCl), 60 min): 1% | Hydrolysis rate in % ([1]; pH 2 (0.01 M HCl), 120 min): 2% | Hydrolysis rate in % ([1]; pH 2 (0.01 M HCl), 180 min): 7% | Hydrolyserate (%) (Hydrolysis rate) [6]: 98%
Structure (SMILES): OC[C@H]1O[C@@](CO)(O[C@H]2O[C@H](CO)[C@@H](O)[C@H](O)[C@H]2O)[C@@H](O)[C@@H]1O [Saccharose, saccharose]

Structure (SMILES): C[C@]12CCC(=O)C=C1CC[C@@H]1[C@@H]2[C@@H](O)C[C@@]2(C)[C@H]1CC[C@]2(O)C(=O)CO [hydrocortisone]
increase in the mucus secretion compared to the control (total carbohydrate in supernatant) [7]: approximately 5.3 -fold

Structure (SMILES): OC[C@H]1O[C@H](O[C@]2(CO)O[C@H](CO[C@H]3O[C@H](CO)[C@@H](O)[C@H](O)[C@H]3O)[C@@H](O)[C@@H]2O)[C@H](O)[C@@H](O)[C@@H]1O [isomelzitose]
number of microorganisms adhering to the epithelial cells [8]: not reduced | number of microorganisms adhering to the epithelial cells (E. coli, 2 strains): not reduced

Structure (SMILES): OC[C@H]1O[C@@](CO)(OC[C@@]2(OC[C@@]3(O[C@H]4O[C@H](CO)[C@@H](O)[C@H](O)[C@H]4O)O[C@H](CO)[C@@H](O)[C@@H]3O)O[C@H](CO)[C@@H](O)[C@@H]2O)[C@@H](O)[C@@H]1O [nystose]
number of microorganisms adhering to the epithelial cells [8]: not reduced | number of microorganisms adhering to the epithelial cells (E. coli, 2 strains): not reduced

Structure (SMILES): OC[C@H]1O[C@H](OC[C@H]2O[C@H](O[C@]3(CO)O[C@H](CO)[C@@H](O)[C@@H]3O)[C@H](O)[C@@H](O)[C@@H]2O)[C@H](O)[C@@H](O)[C@H]1O [raffinose]
number of microorganisms adhering to the epithelial cells [8]: not reduced | number of microorganisms adhering to the epithelial cells (E. coli, 2 strains): not reduced | Monocyten (% positive Zellen), phagocytosis-positive cells (monocytes): 22.0% | Granulocyten (% positive Zellen), phagocytosis-positive cells (granulocytes; E. coli nonopsonized): 17.0% | Granulocyten (% positive Zellen), phagocytosis-positive cells (granulocytes; Staph. aureus nonopsonized): 30.0%
